Assay results: patent US7671165B2, “Method of forming polycarbonate” (Sabic Innovative Plastics IP B.V., priority 2008, dated 2010)
Each block holds one compound with its values, some of them ahead of it.

Tests used:
[1] = Solubility of reaction components and additives in MS; type: physicochemical
[2] = Solubility of catalysts in MS and co-solvents

SMILES: CC(=O)[O-].[Cs+] [CS-Acetate]
Solubility of catalyst, T (room) ([2]; 0.79 wt %, 0.1 g, 10.0 ml MS + 1.0 ml MeOH): Dissolved
Stable at T (room) for: ([2]; 0.79 wt %, 10.0 ml MS + 1.0 ml MeOH): >24 h

SMILES: O=C(Oc1ccccc1)Oc1ccccc1 [Diphenyl Carbonate]
Solubility in MS, T (90° C.) ([1]; 4.1 wt %, 0.5 g in 10 ml MS): Dissolved
Stable at T (room) for: ([1]; solution in MS, 4.1 wt %): >24 h

SMILES: CC(C)(C)c1ccc(OP(Oc2ccc(C(C)(C)C)cc2C(C)(C)C)Oc2ccc(C(C)(C)C)cc2C(C)(C)C)c(C(C)(C)C)c1 [Irgafos 168]
Solubility in MS, T (room) ([1]; 0.8 wt %, 0.1 g in 10 ml MS): Dissolved
Solubility in MS, T (50° C.) ([1]; 4.1 wt %, 0.5 g in 10 ml MS): Dissolved
Stable at T (room) for: ([1]; solution in MS, 0.8 wt %): 5 h
Stable at T (room) for: ([1]; solution in MS, 4.1 wt %): <2 h

SMILES: CC(C)(c1ccccc1)c1ccc(O)cc1 [Para-Cumyl Phenol]
Stable at T (room) for: [1]: >24 h
Solubility in MS, T (room) ([1]; 4.1 wt %, 0.5 g in 10 ml MS): Dissolved
Solubility in MS, T (room) ([1]; 17.5 wt %, 2.5 g in 10 ml MS): Dissolved
Solubility in MS, T (room) ([1]; 29.7 wt %, 5 g in 10 ml MS): Dissolved

SMILES: CC(=O)[O-].CCCC[N+](CCCC)(CCCC)CCCC [Tetra Butyl Ammonium Acetate]
Stable at T (room) for: ([2]; 2.47 wt %, 10.0 ml MS, no co-solvent): >72 h

The remaining lines, values ahead:

Solubility in MS, T (90° C.) ([1]; 0.8 wt %, 0.1 g in 10 ml MS): Dissolved
Stable at T (room) for: ([1]; solution in MS, 0.8 wt %, result in words): Crystalized
SMILES: O=C(O)CCCCCCCCCCCCC(=O)O [1,12-Dodecanedicarboxylic acid]

Solubility in MS, T (90° C.) ([1]; 4.1 wt %, 0.5 g in 10 ml MS): Dissolved
Solubility in MS, T (100° C.) ([1]; 17.5 wt %, 2.5 g in 10 ml MS): Dissolved
Stable at T (room) for: ([1]; solution in MS, 4.1 wt %): >24 h
Stable at T (room) for: ([1]; solution in MS, 17.5 wt %): >24 h
SMILES: COC(=O)c1ccccc1OC(=O)Oc1ccccc1C(=O)OC [BMSC, bismethylsalicylcarbonate]

Solubility in MS, T (room) ([1]; 0.8 wt %, 0.1 g in 10 ml MS): Dissolved
Solubility in MS, T (room) ([1]; 4.1 wt %, 0.5 g in 10 ml MS): Dissolved
Stable at T (room) for: ([1]; solution in MS, 0.8 wt %): >48 h
Stable at T (room) for: ([1]; solution in MS, 4.1 wt %): >24 h
SMILES: O[C@@H]1CO[C@H]2[C@@H]1OC[C@@H]2O [Isosorbide, 1,4:3,6-dianhydro-D-sorbitol]

Solubility in MS, T (room) ([1]; 0.8 wt %, 0.1 g in 10 ml MS): Dissolved
Solubility in MS, T (90° C.) ([1]; 7.8 wt %, 1 g in 10 ml MS): Dissolved
SMILES: Cc1cc(O)ccc1O [Methyl hydroquinone]

Stable at T (room) for: ([1]; solution in MS, 0.8 wt %): >48 h
Stable at T (room) for: ([1]; solution in MS, 7.8 wt %): >24 h
SMILES: Oc1cccc(O)c1 [Resorcinol]
